Measured values from patent US9682938B2, “Pyrazolone derivatives as nitroxyl donors” (Cardioxyl Pharmaceuticals, Inc., priority 2014, dated 2017).
“And” between values parts separate entries of the source, which are not always exact repeats. Equal values may be shown once.

Assays:
[1] = Solid-state stability at 40° C. and 75% RH (purity by HPLC); type: physicochemical; settings: solid powder; for Solid-state stability, purity by HPLC, 0 Months: 0 Months (initial); for Solid-state stability, purity by HPLC, 1 Month: in % (unit assumed)
Protocol: Solid, powdered samples of certain compounds from Table 1 were sealed in double polyethylene bags and stored at 40° C., 75% relative humidity (“RH”) for up to 3 months. A control compound, compound 7 disclosed in WO 2013/059194, was also tested. Initially and after 1 month, 2 months, and 3 months of storage, the samples were analyzed for purity, as determined by high performance liquid chromatography (“HPLC”). Additionally, certain compounds from Table 1 were admixed at a level of 50% by weight with one of the following excipients before stability testing: lactose, microcrystalline cellulose, or croscarmellose sodium. The resulting admixtures were also stored as described above then analyzed for purity of the pyrazolone derivative component, as determined by HPLC. The HPLC apparatus comprised a quaternary or binary pump, an auto sampler, a thermostated column compartment, and a UV/visible detector. The HPLC measurement conditions were as follows: • Column: Zorbax Eclipse XDB-C18, 2.1×50 mm, 3.5 μm (Agilent Technologies, Santa Clara, Calif.) • Injection Volume: 2 μL • Detection Wavelength: 220 nm • Mobile Phase A: 0.1% by volume formic acid (“FA”) in water • Mobile Phase B: 0.1% by volume FA in acetonitrile • Diluent: About 0.2 mg sample/mL acetonitrile • Gradient:
• Flow Rate: 0.8 mL/min • Column Temperature: 25° C.

[2] = In vitro plasma stability, dog plasma; type: in vitro ADME; settings: male, pH 7.4, 5 μM, 37° C., sampling 0-360 minutes, read-out: T1/2 Dog
Summary of the method: (§1)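 Pooled plasma at pH 7.4 with sodium heparin or citrate anticoagulant; compound at 5 μM, 37° C with shaking, triplicate samples at 0–360 min. Quenched in acetonitrile/1% formic acid with internal standard; LC-MS/MS peak-area ratios without standard curve; T1/2 from percent remaining.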

[3] = In vitro plasma stability, human plasma; type: in vitro ADME; settings: male, pH 7.4, 5 μM, 37° C., sampling 0-360 minutes, read-out: T1/2 Human
Summary of the method: as §1

[4] = In vitro plasma stability, rat plasma; type: in vitro ADME; settings: male, pH 7.4, 5 μM, 37° C., sampling 0-360 minutes, read-out: T1/2 Rat
Summary of the method: as §1

[5] = Nitroxyl production via 1H NMR protocol using TXPTS (NMR half-lives); type: physicochemical; settings: phosphate buffer containing TXPTS (HNO trap); pH 7.4, 0.25 M phosphate buffer, 5 mM TXPTS, 1 mM compound, 37° C., spectra over 8 hours; read-out: NMR-T1/2
Protocol: The ^1H NMR procedure used was based on an HPLC protocol developed by S. Bruce King and coworkers (Reisz et al., Org. Lett. 11:2719-2721 (2009), Reisz et al., J. Am. Chem. Soc. 133:11675-11685 (2011) and Guthrie et al., J. Org. Chem. 80:1338-1348 (2015)). According to this procedure, the amount of HNO released from a pyrazolone derivative compound was determined by reacting the compound with the triarylphosphine TXPTS and monitoring the resulting aza-ylide formation.
The procedure for determining the amount of HNO released from certain compounds from Table 1 was as follows.
Tris(4,6-dimethyl-3-sulfanatophenyl)phosphine trisodium salt (TXPTS) was of reagent grade and used without further purification. Synthetic TXPTS aza-ylide was obtained through the amidation of TXPTS using hydroxylamine O-sulfonic acid in water (Armstrong et al., Org. Lett. 7:713-716 (2005)). All other materials were of reagent grade and used without further purification.
All ^1H NMR spectra were obtained in an adjusted-to pH 7.4 solution containing 0.25 M phosphate buffer, 0.2 mM of the metal chelator diethylenetriaminepentaacetic acid (“DTPAC”), and 10% D2O on a Bruker Avance 250 MHz FT-NMR spectrometer using a 1 second presaturation pulse to suppress the water signal. To a nitrogen-purged NMR solution (1.00 mL) containing TXPTS (3.3 mg, 5 mM) was added a pyrazolone derivative compound (10 μL of 100 mM in methanol-d4) to give 1 mM as the initial concentration of the pyrazolone derivative compound. The solution was briefly mixed, about 0.5 mL was transferred to a nitrogen-purged NMR tube and an initial ^1H NMR spectrum (time=0) was obtained. Thereafter, the sample was internally incubated at 37° C. and ^1H NMR spectra were collected at regular intervals for 8 hours.
The HNO donating pyrazolone derivative compound, by-product (e.g., (III) in Scheme 1), and TXPTS aza-ylide concentrations, determined from NMR spectra taken over 8 hours, were plotted as a function of time, and each data set was fitted to a single exponential function. The NMR half-lives for the disappearance of the HNO donating pyrazolone derivative compound and the appearance of by-product and TXPTS aza-ylide were determined from the respective plots. […] A control compound, compound 7 disclosed in WO 2013/059194, was also evaluated.

normal beagle dogs = assay: Pharmacodynamic activity: systolic blood pressure decrease in telemetered dogs after oral dose; type: in vivo, dog; settings: beagle dogs (n=3), single oral dose 30 mg/kg in PEG300, first 2 hr post-dose relative to baseline SBP
Protocol: The effect of certain compounds from Table 1 on blood pressure in freely moving telemetered normal beagle dogs (n=3) after single oral doses was evaluated. The animals were surgically implanted with a pressure transducer equipped telemetry transmitter. The transmitter assembly was secured internally and a fluid-filled catheter was placed into the abdominal aorta to allow for collection of cardiovascular data. To evaluate cardiovascular effects, 3 dogs were given single oral doses of a compound from Table 1 (100% PEG300 in gelatin capsules) at a concentration of 100 mg/mL and at doses of 30 mg/kg. Systemic blood pressure and heart rate were evaluated continuously for 2 hr before and for 24 hr after dosing (results not shown). To compare the pharmacodynamic activity for all tested compounds, the mean systolic blood pressure (SBP) decrease during the first 2 hr post-dose was determined relative to the baseline SBP (30-120 min pre-dose) (Table 6).

**Q.** For `CN1N=C(c2ccc(Cl)cc2)C(C)(NO)C1=O` (centres unmarked) [Compound 1, 5-(4-chlorophenyl)-4-(hydroxyamino)-2,4-dimethyl-2,4-dihydro-3H-pyrazol-3-one], which Solid-state stability, purity by HPLC, 0 Months [1] is on record?
**A.** 100%

**Q.** What about the “Solid-state stability, purity by HPLC, 1 Month” value (“Solid-state stability … 1 Month” below) [1] of the same molecule?
**A.** 99.2

**Q.** What about the Solid-state stability, purity by HPLC, 2 Months [1] of the same molecule?
**A.** 99.8%

**Q.** What about the Solid-state stability, purity by HPLC, 3 Months [1] of the same molecule?
**A.** 99.8%

**Q.** And the half-life at 5 μM [2]?
**A.** 2.47 h

**Q.** What about the half-life at 5 μM [3] of the same molecule?
**A.** 1.4 h

**Q.** What about the half-life at 5 μM [4] of the same molecule?
**A.** 1.33 h

**Q.** What about the half-life at 1 mM [5] of the same molecule?
**A.** 13 h

**Q.** And the “Mean SBP decrease” value (normal beagle dogs)?
**A.** 3 mmHg

**Q.** With `CN1N=C(c2ccccc2Cl)C(C)(NO)C1=O` (centres unmarked) [Compound 2, 5-(2-chlorophenyl)-4-(hydroxyamino)-2,4-dimethyl-2,4-ddihydro-3H-pyrazol-3-one] as the molecule, how does the Solid-state stability, purity by HPLC, 0 Months [1] read?
**A.** 91.2%

**Q.** And the “Solid-state stability … 1 Month” value [1]?
**A.** <10

**Q.** What about the Solid-state stability, purity by HPLC, 2 Months [1] of the same molecule?
**A.** < 10%

**Q.** What about the Solid-state stability, purity by HPLC, 3 Months [1] of the same molecule?
**A.** < 10%

**Q.** And the half-life at 5 μM [2]?
**A.** 1.2 h

**Q.** And the half-life at 5 μM [3]?
**A.** 0.867 h

**Q.** And the half-life at 5 μM [4]?
**A.** 1.02 h

**Q.** And the half-life at 1 mM [5]?
**A.** 0.833 h

**Q.** What about the “Mean SBP decrease” value (normal beagle dogs) of the same molecule?
**A.** 2 mmHg

**Q.** With `CN1N=C(c2ccccc2F)C(C)(NO)C1=O` (centres unmarked) [Compound 3, 5-(2-fluorophenyl)-4-(hydroxyamino)-2,4-dimethyl-2,4-dihydro-3H-pyrazol-3-one] as the molecule, how does the half-life at 5 μM [2] read?
**A.** 0.467 h

**Q.** And the half-life at 5 μM [3]?
**A.** 0.533 h

**Q.** And the half-life at 5 μM [4]?
**A.** 0.617 h

**Q.** What about the half-life at 1 mM [5] of the same molecule?
**A.** 3.95 h

**Q.** What about the “Mean SBP decrease” value (normal beagle dogs) of the same molecule?
**A.** 28 mmHg

**Q.** Which results are given for `CC1=NN(C)C(=O)C1(NO)c1ccccc1` (centres unmarked) [Compound 6, 4-(hydroxyamino)-2,5-dimethyl-4-phenyl-2,4-dihydro-3H-pyrazol-3-one]?
**A.** Solid-state stability, purity by HPLC, 0 Months [1]: 99.8%; Solid-state stability, purity by HPLC, 1 Month [1]: <10; half-life at 5 μM [2]: 0.2 h; half-life at 5 μM [3]: 0.633 h; half-life at 1 mM [5]: 0.567 h; Mean SBP decrease (normal beagle dogs): 22 mmHg

**Q.** Which Solid-state stability, purity by HPLC, 0 Months [1] does the source give for `CN1N=C(c2ccc(S(C)(=O)=O)cc2)C(C)(NO)C1=O` (centres unmarked) [Compound 14, 4-(hydroxyamino)-2,4-dimethyl-5-(4-(methylsulfonyl)phenyl)-2,4-dihydro-3H-pyrazol-3-one] here?
**A.** 99.3%

**Q.** And the “Solid-state stability … 1 Month” value [1]?
**A.** 97.0 and 61.0

**Q.** And the Solid-state stability, purity by HPLC, 2 Months [1]?
**A.** 68%

**Q.** What about the half-life at 5 μM [2] of the same molecule?
**A.** 1.1 h

**Q.** And the half-life at 5 μM [3]?
**A.** 0.817 h

**Q.** What about the half-life at 5 μM [4] of the same molecule?
**A.** 0.667 h

**Q.** And the half-life at 1 mM [5]?
**A.** 6.32 h

**Q.** And the “Mean SBP decrease” value (normal beagle dogs)?
**A.** 13 mmHg

**Q.** With `CN1N=C(c2ccccc2)C(C)(NO)C1=O` (centres unmarked) [Compound 15, 4-(hydroxyamino)-2,4-dimethyl-5-phenyl-2,4-dihydro-3H-pyrazol-3-one] as the molecule, how does the Solid-state stability, purity by HPLC, 0 Months [1] read?
**A.** 98.3%

**Q.** What about the “Solid-state stability … 1 Month” value [1] of the same molecule?
**A.** <10

**Q.** And the half-life at 5 μM [2]?
**A.** 1.67 h

**Q.** And the half-life at 5 μM [3]?
**A.** 1.33 h

**Q.** And the half-life at 5 μM [4]?
**A.** 1.12 h

**Q.** And the half-life at 1 mM [5]?
**A.** 16.8 h

**Q.** And the “Mean SBP decrease” value (normal beagle dogs)?
**A.** 31 mmHg
